Among the data in patent US20230203029A1 (priority 2020, published 2023) are IC50 values, retold here.

Assay [1] concerns the target T1, human MERTK cytoplasmic domain (Homo sapiens, UniProt Q12866).
T1 construct: human MERTK cytoplasmic domain (Carna Biosciences 08-108); purchased Carna Biosciences 08-108
Nature of the assay: biochemical. Conditions: 30 uM ATP; read-out: Assay 1a Mer IC50 30 uM ATP. The procedure: Assay 1a—MERTK HTRF KinEASE-TK Assay
The enzymatic reaction was carried out for 30 min at room temperature. 10 μL TK Antibody-Cryptate/Streptavidin-XL665 (Cisbio 610SAXLG) was then added for 60 min, including EDTA containing detection buffer (Cisbio 62SDBRDF) to stop the reaction.

Assay [2] concerns the target T2, Ba/F3 Pro B-cell line expressing TEL-human MERTK fusion domain (Homo sapiens, UniProt Q12866).
T2 sequence (Q12866 587-858 limits assumed): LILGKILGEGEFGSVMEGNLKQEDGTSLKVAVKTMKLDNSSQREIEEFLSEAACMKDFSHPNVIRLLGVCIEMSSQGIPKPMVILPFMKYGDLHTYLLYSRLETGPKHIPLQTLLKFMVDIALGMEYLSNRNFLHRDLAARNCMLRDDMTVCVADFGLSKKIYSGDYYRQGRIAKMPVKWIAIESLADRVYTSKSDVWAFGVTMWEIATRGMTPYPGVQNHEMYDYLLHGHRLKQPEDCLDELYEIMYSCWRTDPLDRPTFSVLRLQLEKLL
The class given is cell-based. The conditions noted are these: cell survival, 48 h, CellTiter-Glo; read-out: TEL-MERTK Ba/F3 IC50. The procedure: (§1) Assay 5—Ba/F3 Cell Survival Assays.
(§2) The inhibitory potencies of compounds were assessed in a Ba/F3 cell survival assay, using the Ba/F3 Pro B-cell line, recombinantly expressing a BCR-human AXL kinase domain fusion protein (pACD320/AXL, Advanced Cellular Dynamics Inc), TEL-human MERTK fusion domain (pACD1000/MERTK, Advanced Cellular Dynamics Inc), TEL-human Tyro3 fusion domain (pACD1000/TYRO3, Advanced Cellular Dynamics Inc), or control TEL-none (ACD320, Advanced Cellular Dynamics Inc) BRC-none constructs (ACD1000, Advanced Cellular Dynamics Inc). 10 ng/mL recombinant murine IL3 (R&D, 403-ML-010) was included in the media when propagating negative control TEL-none or BCR-none lines only. […] The final assay DMSO concentration was 0.25%. Compound incubations were conducted for 48 h at 37° C./5% CO2, after which cell plate was equilibrated at room temperature for 20 minutes prior to assessing viability. 15 μl of Promega CellTiter-Glo reagent (G7572) was added to each well for 2 min on an orbital shaker to induce cell lysis.
The plate was then equilibrated for 5 min at room temperature and luminescence read on a BMG Pherastar FSX using the LUM plus optic module. […] Competition curves were then fit to a 4 parameter logistic equation including a variable slope factor to determine the IC50 (compound concentration causing a half-maximal inhibition of cell survival).
On the technique in general: ATP-based viability assays read luminescence as a measure of living cells.

In assay [3] the target is T3, human AXL cytoplasmic domain (Homo sapiens, UniProt P30530).
T3 construct: human AXL cytoplasmic domain (Thermo Fisher A31515); purchased Thermo Fisher A31515
T3 sequence (P30530 473-894 limits assumed): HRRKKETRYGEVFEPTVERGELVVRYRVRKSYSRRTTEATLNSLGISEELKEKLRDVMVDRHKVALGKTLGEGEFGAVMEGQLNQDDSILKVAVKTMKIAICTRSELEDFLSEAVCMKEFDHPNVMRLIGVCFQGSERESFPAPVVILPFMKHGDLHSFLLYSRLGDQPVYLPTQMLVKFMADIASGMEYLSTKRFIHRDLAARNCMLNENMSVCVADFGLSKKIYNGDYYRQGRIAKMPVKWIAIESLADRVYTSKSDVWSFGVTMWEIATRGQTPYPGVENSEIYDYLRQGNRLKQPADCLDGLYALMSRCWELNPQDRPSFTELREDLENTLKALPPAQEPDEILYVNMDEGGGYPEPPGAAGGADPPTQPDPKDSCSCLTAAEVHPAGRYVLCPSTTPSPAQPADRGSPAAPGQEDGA
The assay is described as follows: Assay 1b AXL HTRF KinEASE-TK assay. It is filed as biochemical. As to the method:
Assay 1b—AXL HTRF KinEASE-TK Assay
Compound inhibition of human AXL cytoplasmic domain (Thermo Fisher A31515) enzymatic activity was tested via the HTRF KinEASE-tyrosine kinase (TK) kit (Cisbio 62TK0PEC). Experiments were performed in 20 μl enzymatic buffer (Cisbio 62EZBFDD) supplemented with 5 mM MgCl2, 1 mM MnCl2, 1 mM DTT, 50 nM SEB (Cisbio, 61SEBALB), with 5 nM of AXL and the test compounds of interest. […] The enzymatic reaction was carried out for 30 min at room temperature. 10 μL TK Antibody-Cryptate/Streptavidin-XL665 (Cisbio 610SAXLG) was then added for 60 min, including EDTA containing detection buffer (Cisbio 62SDBRDF) to stop the reaction. The plate was read on a BMG Pherastar FSX using a HTRF 337/620/665 optical module to excite the terbium donor at 337 nm, and record donor emission at 620 nm and acceptor fluorophore emission at 665 nm. From this the FRET ratio (acceptor 665 nm/donor 620 nm) for each data point was calculated. […] Competition curves were then fit to a 4 parameter logistic equation including a variable slope factor to determine the IC50 (compound concentration that inhibits 50% of AXL activity).
Background: In TR-FRET formats the signal depends on donor and acceptor labels being close together.

Assay [4] deals with T4, Ba/F3 Pro B-cell line expressing TEL-human Tyro3 fusion domain (Homo sapiens, UniProt Q06418).
T4 sequence (Q06418 518-790 limits assumed): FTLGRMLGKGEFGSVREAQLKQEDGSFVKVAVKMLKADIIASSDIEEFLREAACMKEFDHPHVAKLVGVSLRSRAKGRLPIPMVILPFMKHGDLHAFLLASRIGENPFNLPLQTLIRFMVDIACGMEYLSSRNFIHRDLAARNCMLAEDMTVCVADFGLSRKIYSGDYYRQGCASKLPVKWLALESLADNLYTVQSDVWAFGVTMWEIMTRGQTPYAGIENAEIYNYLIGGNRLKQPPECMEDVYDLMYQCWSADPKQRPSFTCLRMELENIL
The class given is cell-based. Conditions: cell survival, 48 h, CellTiter-Glo. As to the method: as §1
as §2, with “only. Cells were maintained in RMPI 1640 (Corning 15-040-CV) culture media containing 10% heat inactivated semi-synthetic FBS (RMBIO FGR-BBT), 2 mM L-Glutamine (Sigma, G7513), 100 IU/mL Penicillin-[…] Streptomycin (Sigma, P4333), and 500 ng/mL Puromycin (Sigma, P8833). Experiments were performed in 50 μl growth media, including the test compounds of interest, and dispensing 5000 cells/well in logarithmic-phase growth into a 384 well white Optiplate (Perkin Elmer 6007299).” for “only.”
The plate was then equilibrated for 5 min at room temperature and luminescence read on a BMG Pherastar FSX using the LUM plus optic module. Data were normalised to measurements in the absence of competing compound (0% inhibition). Competition curves were then fit to a 4 parameter logistic equation including a variable slope factor to determine the IC50 (compound concentration causing a half-maximal inhibition of cell survival).

T1 sequence (Q12866 527-999): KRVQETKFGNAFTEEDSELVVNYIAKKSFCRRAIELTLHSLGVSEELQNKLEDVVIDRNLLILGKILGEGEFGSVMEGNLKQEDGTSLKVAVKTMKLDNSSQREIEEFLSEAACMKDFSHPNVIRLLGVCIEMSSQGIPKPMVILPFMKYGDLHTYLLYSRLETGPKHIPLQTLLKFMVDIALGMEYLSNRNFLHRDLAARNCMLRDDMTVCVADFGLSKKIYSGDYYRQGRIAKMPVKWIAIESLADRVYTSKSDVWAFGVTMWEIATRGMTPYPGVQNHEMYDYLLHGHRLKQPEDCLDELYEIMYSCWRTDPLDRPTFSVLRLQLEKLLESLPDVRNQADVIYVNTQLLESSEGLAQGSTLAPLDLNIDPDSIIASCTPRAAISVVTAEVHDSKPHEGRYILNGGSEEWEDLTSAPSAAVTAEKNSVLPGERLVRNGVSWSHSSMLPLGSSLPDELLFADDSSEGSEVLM

Consider `O=C(Nc1ccc(Nc2ccnc3cnc(C(=O)N4CCC4)cc23)cc1)c1cccn(-c2ccccc2)c1=O` [Example 5.4, N-[4-[[6-(azetidine-1-carbonyl)-1,7-naphthyridin-4-yl]amino]phenyl]-2-oxo-1-phenyl-pyridine-3-carboxamide], for which the IC50 in assay [1] stood at 535 nM.

Turning to `CC(C)n1cc(C(=O)Nc2ccc(Nc3ccnc4cnc(C(=O)NOCCO)cc34)cc2)c(=O)n(-c2ccc(F)cc2)c1=O` [Example 7, 4-[4-[[3-(4-fluorophenyl)-1-isopropyl-2,4-dioxo-pyrimidine-5-carbonyl]amino]anilino]-N-(2-hydroxyethoxy)-1,7-naphthyridine-6-carboxamide], the IC50 in assay [1] stood at 392 nM.

On to `CC(C)n1cc(C(=O)Nc2ccc(Nc3ccnc4cnc(C(=O)NCCN(C)C)cc34)cc2)c(=O)n(-c2ccc(F)cc2)c1=O` [Example 7.1, N-[2-(dimethylamino)ethyl]-4-[4-[[3-(4-fluorophenyl)-1-isopropyl-2,4-dioxo-pyrimidine-5-carbonyl]amino]anilino]-1,7-naphthyridine-6-carboxamide], for which, in assay [1], the IC50 amounted to 54 nM.

Take `CN1CCC(NC(=O)c2cc3c(Oc4ccc(NC(=O)c5cccn(-c6ccccn6)c5=O)cc4)ccnc3cn2)CC1` [Example 8, N-(1-methyl-4-piperidyl)-4-[4-[[2-oxo-1-(2-pyridyl)pyridine-3-carbonyl]amino]phenoxy]-1,7-naphthyridine-6-carboxamide]: the IC50 in assay [1] worked out at 154 nM.

Turning to `Cc1c(C(=O)Nc2ccc(Oc3ccnc4cnc(C(=O)NC5CCN(C)CC5)cc34)cc2)c(=O)n(-c2ccccc2)n1C` [Example 8.3, 4-[4-[(1,5-Dimethyl-3-oxo-2-phenyl-pyrazole-4-carbonyl)amino]phenoxy]-N-(1-methyl-4-piperidyl)-1,7-naphthyridine-6-carboxamide], in assay [1], the IC50 stood at 133 nM.

Take `Cc1c(C(=O)Nc2ccc(Oc3ccnc4cnc(C(=O)NC5CCN(C)CC5)cc34)cc2)c(=O)n(-c2ccccc2)n1CC(C)(C)O` [Example 8.4, 4-[4-[[1-(2-hydroxy-2-methyl-propyl)-5-methyl-3-oxo-2-phenyl-pyrazole-4-carbonyl]amino]phenoxy]-N-(1-methyl-4-piperidyl)-1,7-naphthyridine-6-carboxamide]: the IC50 in assay [1] was determined as 245 nM.

For the compound `CN1CCN(c2cc3c(Oc4ccc(NC(=O)c5cccn(-c6ccc(F)cc6)c5=O)nc4)ccnc3cn2)CC1` [Example 10.1, 1-(4-fluorophenyl)-N-[5-[[6-(4-methylpiperazin-1-yl)-1,7-naphthyridin-4-yl]oxy]-2-pyridyl]-2-oxo-pyridine-3-carboxamide], the IC50 was found to be 16 nM in assay [2], 14 nM in assay [3], 6 nM in assay [1] and 119 nM in assay [4].

On to `O=C(Nc1ccc(Oc2ccnc3cnc(N4CCNCC4)cc23)cc1)c1cccn(-c2ccccn2)c1=O` [Example 12.1, 2-oxo-N-[4-[(6-piperazin-1-yl-1,7-naphthyridin-4-yl)oxy]phenyl]-1-(2-pyridyl)pyridine-3-carboxamide], for which the IC50 in assay [1] was 722 nM.

Regarding `O=C(Nc1ccc(Oc2ccnc3cnc(N4CCNCC4)cc23)cc1)c1c[nH]cc(-c2ccc(F)cc2)c1=O` [Example 12.7, 5-(4-fluorophenyl)-4-oxo-N-[4-[(6-piperazin-1-yl-1,7-naphthyridin-4-yl)oxy]phenyl]-1H-pyridine-3-carboxamide], the IC50 is 36 nM in assay [3] and 16 nM in assay [1].

As for `Cc1c(C(=O)Nc2ccc(Oc3ccnc4cnc(N5CCNCC5)cc34)cc2)c(=O)n(-c2ccccc2)n1C` [Example 12.8, 1,5-dimethyl-3-oxo-2-phenyl-N-[4-[(6-piperazin-1-yl-1,7-naphthyridin-4-yl)oxy]phenyl]pyrazole-4-carboxamide], in assay [1], the IC50 turned out to be 134 nM.

In the case of `CN1CCC(NC(=O)c2cc3c(Oc4cnc(NC(=O)c5cccn(-c6ccc(F)cc6)c5=O)nc4)ccnc3cn2)CC1` [Example 19, 4-[2-[[1-(4-Fluorophenyl)-2-oxo-pyridine-3-carbonyl]amino]pyrimidin-5-yl]oxy-N-(1-methyl-4-piperidyl)-1,7-naphthyridine-6-carboxamide], the IC50 in assay [1] was found to be 137 nM.

With `CC(C)n1cc(C(=O)Nc2ccc(Oc3ccnc4cnc(C5CCN(C)CC5)cc34)cn2)c(=O)n(-c2ccc(F)cc2)c1=O` [Example 23.1, 3-(4-fluorophenyl)-1-isopropyl-N-[5-[[6-(1-methyl-4-piperidyl)-1,7-naphthyridin-4-yl]oxy]-2-pyridyl]-2,4-dioxo-pyrimidine-5-carboxamide], the results for the IC50 in assay [2], in assay [1] and in assay [4] were 15 nM, 13 nM and 568 nM, respectively.
